Consider 7 molecules from patent US20220151979A1, “COMPOSITION FOR PREVENTION OR TREATMENT OF CARDIOVASCULAR AND METABOLIC DISEASE COMPRISING NORANHYDROICARITIN” (SEOUL NATIONAL UNIVERSITY HOSPITAL, priority 2019, published 2022).

What all share (format): cell-based, human
Experiment [1] concerns PCSK9. As to the kind of experiment: Immunoblot of PCSK9 in HepG2 cells, noranhydroicaritin and pravastatin, pitavastatin, fluvastatin or simvastatin (Table 1). The settings on record: statin 5 μM singly, untreated = 1 ± 0.04. As to the method: The cells aliquoted by the method of Example 7 were treated with noranhydroicaritin or each statin (pravastatin, pitavastatin, fluvastatin, or simvastatin) singly or with noranhydroicaritin and a statin (pravastatin, pitavastatin, fluvastatin, or simvastatin) simultaneously, and the proteins were extracted. On an SDS-polyacrylamide gel, 30 μg of each protein was electrophoresed, and attached to a membrane, and then protein expression levels were confirmed using the respective antibodies: PCSK9 and LDLR.

Experiment [2] relates to PCSK9. As to the kind of experiment: Immunoblot of PCSK9 in HepG2 cells, noranhydroicaritin and statin singly or in combination. The settings on record: treated singly. How it is done:
The cells aliquoted by the method of Example 7 were treated with noranhydroicaritin or a statin (atorvastatin or rosuvastatin) singly or with noranhydroicaritin and a statin (atorvastatin or rosuvastatin) simultaneously, and the proteins were extracted. On an SDS-polyacrylamide gel, 30 μg of each protein was electrophoresed, and attached to a membrane, and then protein expression levels were confirmed using the respective antibodies: phospho-AMPK, PCSK9, LDLR, and PPARγ.
In general terms: A western blot detects proteins with antibodies after separation by electrophoresis.

Another experiment deals with SREBP 1 promoter. As to the kind of experiment: SREBP 1 promoter-reporter luciferase assay in HEK293T cells. The conditions noted are these: pGL4.14-SREBP-transfected HEK293T cells, 18 hours, compared to control. How it is done:
(§1) In order to confirm the SREBP gene expression inhibitory effect of noranhydroicaritin, HEK293T cells were treated with noranhydroicaritin and kaempferol, and it was confirmed whether the expression of SREBP was inhibited through a luciferase assay.
(§2) i) A primer was prepared to contain KpnI and XhoI restriction enzyme sites in the SREBP 1 and 2 promoter gene region, and then PCR (polymerase chain reaction) and electrophoresis on an agarose gel were performed to isolate SREBP promoter region DNA. A pGL4.14-[luc2/Hygro] vector containing a firefly luciferase as a reporter gene was treated with the same restriction enzymes (KpnI and XhoI), and then isolated via agarose gel electrophoresis and gel extraction. The purely isolated SREBP promoter gene region and pGL4.14-[luc2/Hygro] vector were reacted for 1 hour using In-fusion DNA ligase (Takara), and then transformed into E. coli to prepare a promoter-reporter construct in which the SREBP promoter was inserted, and this was named pGL4.14-SREBP.
(§3) ii) In order to measure the transcriptional activity of the SREBP promoter gene, HEK293T cells were transfected with pGL4.14-SREBP, and then the luciferase activity of the cell extract was measured. […] Thereafter, the luciferase activity was measured by the method of Example 6. […]

The next experiment deals with SREBP 2 promoter. As to the kind of experiment: SREBP 2 promoter-reporter luciferase assay in HEK293T cells. The settings on record: pGL4.14-SREBP-transfected HEK293T cells, 18 hours, compared to control. As to the method:
as §1, §2, §3

SMILES strings stand for the structures.

On to `CC(C)n1c(/C=C/C(O)CC(O)CC(=O)O)c(-c2ccc(F)cc2)c2ccccc21` (centres unmarked) [Fluvastatin, fluvastatin], for which the PCSK9 with PCSK9 [1] is given as 1.63 ± 0.02.
Still for that read-out and setting: to `O=C(O)C[C@H](O)C[C@H](O)/C=C/c1c(C2CC2)nc2ccccc2c1-c1ccc(F)cc1` [Pitavastatin, pitavastatin] belongs 1.59 ± 0.02.
Molecule `CC[C@H](C)C(=O)O[C@H]1C[C@H](O)C=C2C=C[C@H](C)[C@H](CC[C@@H](O)C[C@@H](O)CC(=O)O)[C@H]21` [Pravastatin, pravastatin] had a PCSK9 in the experiment on PCSK9 [1] of 1.9 ± 0.06.
In the experiment on PCSK9 [1], `CCC(C)(C)C(=O)O[C@H]1C[C@@H](C)C=C2C=C[C@H](C)[C@H](CC[C@@H]3C[C@@H](O)CC(=O)O3)[C@H]21` [Simvastatin, simvastatin] returned a PCSK9 of 1.85 ± 0.11.
For the molecule `CC(C)c1c(C(=O)Nc2ccccc2)c(-c2ccccc2)c(-c2ccc(F)cc2)n1CC[C@@H](O)C[C@@H](O)CC(=O)O` [atorvastatin], the “quantity of PCSK9 (immunoblot)” value with PCSK9 [2] is “increased”.
For the molecule `O=c1c(O)c(-c2ccc(O)cc2)oc2cc(O)cc(O)c12` [kaempferol, reference compound], the “SREBP 1 luciferase activity” value with SREBP 1 promoter is given as “actually increased”. For the same molecule, the “SREBP 2 luciferase activity” value in the experiment on SREBP 2 promoter is recorded as “actually increased”.
For `CC(C)c1nc(N(C)S(C)(=O)=O)nc(-c2ccc(F)cc2)c1/C=C/[C@@H](O)C[C@@H](O)CC(=O)O` [rosuvastatin], the “quantity of PCSK9 (immunoblot)” value with PCSK9 [2] is listed as “increased”.
